Here are results for four compounds from patent publication US8729023B2 (priority 2002, dated 2014).

Where “and” joins values, the source holds several entries; their conditions need not be identical. Equal entries are not always repeated.

For series [1] the following is noted: rat, in vivo.
Series [2] has as its system MNU-induced breast tumors. Particulars: rat, in vivo.
The test system of series [3] is human melanoma cells (UISO-MEL-2) tumor. The conditions noted are these: nude, mouse, in vivo.
Series [4] can be described thus: in vivo. Particulars: female, Sprague Dawley, rat.
For series [5], the system named is JHU-4 (MAT-LyLu) prostate tumor. Particulars: rat, in vivo.
The nature of series [6]: Effect of ET-1 infusion on systemic hemodynamics, radioactive microsphere technique. It is filed as in vivo, rat. The conditions noted are these: ET-1 50 ng/kg/min infusion for 30 minutes.
Series [7] deals with breast tissue of cancer-free and breast tumor-bearing rats. Kind of series: Effect of ET-1 infusion on blood flow and regional vascular resistance in breast tissue, microspheres. The class given is in vivo, rat.
The test system is the same in series [8]. Kind of series: Effect of ET-1 on perfusion, CMBC and velocity of blood cells in breast tissue, laser Doppler flowmetry. It is filed as in vivo, rat. The method, then: MNU and saline treatments were performed as i.p. injections three months prior to the studies. Rats were palpated regularly starting four weeks after the treatments. Once tumors reached about 4-8 mm in diameter, experiments were initiated.
Rats were initially divided into two groups, each receiving one of the following treatments: • Group I: ET-1 (50 ng/kg/min) infusion for 30 minutes in rats treated with saline (normal rats) (N=6); and • Group II: ET-1 (50 ng/kg/min) infusion for 30 minutes in treated with MNU (50 mg/kg, i.p.; tumor rats) (N=6).
Systemic hemodynamic and regional circulation parameters were determined at baseline, 30, 60, and 120 minutes after starting ET-1 (50 ng/kg/min) infusion.
Blood perfusion to the mammary gland of the rats was measured using laser Doppler flowmetry. See Song et al., Int J Radiat Oncol Biol Phys, 18:903 (1990); Song et al., Int J Radiat Oncol Biol Phys, 17:1041 (1989). The animals were shaved around the nipples. The skin surrounding the mammary glands was dissected out as a lambeau about 6 cm wide and about 4 cm long. A standard model fiber optic probe was applied to the surface of the lambeau, and secured to the tissue by double stick tape. The lambeau was placed in a metal holder and taped down to prevent movement, then connected to a Periflux PF2b 4000 Laser Doppler Flowmetry (Perimed K B, Stockholm, Sweden). The time constant was set at 1.5 seconds and the bandwidth was set at 4 KHz. Data were analyzed using analysis of variance followed by Duncan's test. A level of p<0.05 was considered significant.

For series [9] the test system is unchanged. Kind of series: Effect of BQ788 on ET-1-induced changes in perfusion, CMBC and velocity of blood cells in breast tissue. It is filed as in vivo, rat.
[10] abbreviates: female, Sprague Dawley, iv, 3 nmol/kg.
Where [11] appears, read: tumor-bearing rats, at 30 minutes.
Where [12] appears, read: tumor-bearing rats, at 60 minutes.
[13] abbreviates: tumor-bearing rats, at 120 minutes.
[14] abbreviates: normal saline-treated rats, ET-1 50 ng/kg/min infusion for 30 minutes.

A word on the Vss: it is the apparent volume that relates the amount in the body to the concentration in plasma or blood. A word on the MRT: it is the average time that molecules of a dose stay in the body. In general, half-life refers to the time in which the quantity being followed falls by half. One may read the Cmax as the maximum level reached in the sampled fluid or tissue. In general, MRT inf refers to the average time that molecules of a dose stay in the body. By AUC(0-inf) is commonly meant total exposure, with the tail of the curve extrapolated. A high value points to more exposure. For orientation: clearance means a measure of how efficiently the substance is removed, as volume per time. In general, Vd refers to the apparent volume that relates the amount in the body to the concentration in plasma or blood. A lower Vd goes with confinement near the circulation. In series [1] (female, Sprague Dawley), `CC(=O)O[C@H]1C(=O)[C@@]2(C)[C@H]([C@H](OC(=O)c3ccccc3)[C@]3(O)C[C@H](OC(=O)[C@H](O)[C@@H](NC(=O)c4ccccc4)c4ccccc4)C(C)=C1C3(C)C)[C@]1(OC(C)=O)CO[C@@H]1C[C@@H]2O` [paclitaxel] gave a K10 of 3.14 ± 1.34, a K12 of 56.47 ± 27.69, a K13 of 5.71 ± 3.37 and a βt½ of 1.0 ± 0.32 h. The γt½ in series [1] (female, Sprague Dawley) turned out to be 25.87 ± 17.81 h. In series [1] (female, Sprague Dawley, iv), the AUC of paclitaxel was determined as 9433.53 ± 1465.00 ng·h/mL and the “elimination half-life of paclitaxel” value is 8.4 ± 4.8 min. In [1] (setting [10]), the “AUC0-∞” value turned out to be 9430 ± 1470 ng·h/mL, the Cl came out at 9.33 ± 1.2 mL/min/kg, the Vss stood at 8.14 ± 2.95 L/kg and the “α t1/2” value came out at 0.03 ± 0.01. Besides, in series [1] (setting [10]), the “β t1/2” value is 1.0 ± 0.32 and the “γ t1/2” value is listed as 25.87 ± 17.81. Also, in series [1], the “clearance calculated as Dose/AUC” value was 9.33 ± 1.2 mL/min/kg. Further, in [2], the “percent of tumors progressed” value was 71.4% and 61.1%; the “percent of tumors regressing in size” value worked out at 9.5%; the “percent of tumors remaining in stasis” value is 22.2% and 19.5%; the “reduction in tumor volume as compared to control rats” value is reported as 60.0%. Moreover, in [2], the “regression (FIG. 13)” value is reported as 33.8±19.4%; the “tumor multiplicity, new tumor occurrence” value was 78.3% and 41%; the tumor regression rate came to 37.7±16.2%; the tumor volume is 1960.8±611.9 mm^3 and 1682.7±497.3 mm^3. In series [2], the “tumors regressed compared to control rats” value is reported as 45.9±11.5%. For the same compound, in series [3], the “tumor [^3H]paclitaxel concentration” value worked out at 40.77 nmol/g tissue. In series [4], this compound gave an MRT of 27.9 ± 19.8 h and a half-life of 1.8 ± 0.6 min. Moreover, in series [4] (iv, 3 nmol/kg), the Cmax was found to be 6730 ± 540 ng/mL, the MRT was 27.9 ± 19.8 h and the MRT inf was 17.4 ± 8.13 h. This compound also came in with an AUC(0-inf) in series [4] (iv, 3 nmol/kg, AUC0-∞) of 9420 ± 3180 ng·h/mL. The same compound showed a clearance in series [4] (iv, 3 nmol/kg, Cl) of 11.5 mL/min/kg. This compound also gave a Vd in [4] (iv, 3 nmol/kg, Vd) of 10.1 ± 4.18 L/kg. For the same compound, the Vd in series [4] (iv, 3 nmol/kg, Vss) was found to be 10.3 ± 4.54 L/kg.
Turning to `COc1cccc2c1C(=O)c1c(O)c3c(c(O)c1C2=O)C[C@@](O)(C(=O)CO)C[C@@H]3O[C@H]1C[C@H](N)[C@H](O)[C@H](C)O1` [saline+DOX, doxorubicin], in series [5], the “maximum decrease in body weight” value is listed as −8.46±3.88.
With `CC[C@H](C)[C@H](NC(=O)[C@H](CC(=O)O)NC(=O)[C@H](CC(C)C)NC(=O)[C@H](Cc1c[nH]cn1)NC(=O)[C@@H]1CSSC[C@H](N)C(=O)N[C@@H](CO)C(=O)N[C@H]2CSSC[C@H](NC(=O)[C@H](CCC(=O)O)NC(=O)[C@H](CCCCN)NC(=O)[C@H](CC(=O)O)NC(=O)[C@H](CCSC)NC(=O)[C@H](CC(C)C)NC(=O)[C@H](CO)NC(=O)[C@H](CO)NC2=O)C(=O)N[C@@H](C(C)C)C(=O)N[C@@H](Cc2ccc(O)cc2)C(=O)N[C@@H](Cc2ccccc2)C(=O)N1)C(=O)N[C@H](C(=O)N[C@@H](Cc1c[nH]c2ccccc12)C(=O)O)[C@@H](C)CC` [ET-1], the “change in HR” value in series [6] (normal rats) is “No significant change”; in series [6] (tumor-bearing rats), “No change”. Moreover, the “increase in MAP” value in [6] (normal rats, at 30 minutes) is given as 14.5%; in series [6] (tumor-bearing (MNU treated) rats, at 30 minutes) it was 19.1%; in series [6] (tumor-bearing (MNU treated) rats, at 60 minutes) it was 15.3%. The CO decrease stood at 22.9% in [6] (normal rats, at 60 minutes); 42.5% in series [6] (normal rats, at 120 minutes); 29.4% in [6] (setting [11]); 16.7% in series [6] (setting [12]); 36.1% in [6] (setting [13]). For the same compound, the SV decrease in series [6] (normal rats, at 60 minutes) is 20.9%; in series [6] (normal rats, at 120 minutes), 36%; in series [6] (setting [11]), 31.1%; in series [6] (setting [12]), 17.9%; in series [6] (setting [13]), 32.1%. The TPR increase in series [6] (normal rats, at 120 minutes) turned out to be 49.2%; in series [6] (setting [11]), 73.9%; in series [6] (setting [12]) it was 39.7%; in series [6] (setting [13]), 71.4%. In addition, in series [6] (normal rats, at 120 minutes), the “decrease in MAP” value worked out at 17.8%. Moreover, in series [7] (at 60 minutes following ET-1 administration), the “vascular resistance in tumor-bearing rats, difference compared to normal rats” value was 147%. Moreover, the “increase in blood flow to the breast tissue of tumor-bearing rats as compared to normal rats” value in [7] (at 60 minutes following administration of ET-1 50 ng/kg/min) came to 153%. Also, in [7] (setting [14]), the “change in blood flow to the breast tissue” value is “No significant change”. Further, the “change in vascular resistance in breast tissue” value in [7] (setting [14]) is given as “No significant change”. For the same compound, the “velocity of RBC in tumor-bearing rats” value in series [8] (120 minutes after ET-1 administration) is listed as “returned to baseline”. In addition, the “perfusion in the breast tissue of tumor-bearing rats” value in series [8] (at 60 and 120 minutes following ET-1 administration) is listed as “returned to baseline”. Also, the “perfusion in the breast tissue of tumor-bearing rats, increase compared to normal rats” value in series [8] (at 30 minutes following ET-1 administration) amounted to 176%. For the same compound, the “CMBC in tumor-bearing rats, increase as compared to normal rats” value in series [8] (at 60 minutes post ET-1 administration) stood at 54%. Moreover, the “CMBC in tumor-bearing rats” value in series [8] (at 120 minutes after ET-1 administration) was “returned to baseline”. In addition, in series [8] (normal rats, after ET-1 50 ng/kg/min infusion), the “blood perfusion in the breast tissue” value is recorded as “did not significantly change”. Besides, the “velocity of RBC, increase compared to normal rats” value in series [8] (tumor-bearing rats, at 30 minutes post ET-1 administration) stood at 252%.
Consider `CCCC[C@@H](NC(=O)[C@@H](Cc1cn(C(=O)OC)c2ccccc12)NC(=O)[C@H](CC(C)(C)C)NC(=O)N1[C@H](C)CCC[C@@H]1C)C(=O)O` [BQ788, N-cis-2,6-dimethylpiperidinocarbonyl-L-gamma-methyll-eucyl-D-1-methoxycarbonyltrptophanyl-D-Nle], for which, in [9] (after BQ788 infusion), the “CMBC of tumor-bearing versus normal rats” value is “no difference” and the “velocity of RBC, tumor-bearing versus normal rats” value is on record as “no difference”. Besides, in series [9] (following ET-1 administration in BQ788 pretreated rats), the “perfusion in breast tissue of tumor-bearing rats versus normal rats” value is “No difference”. Moreover, in series [9] (normal rats, BQ788 0.5 μmol/kg infusion for 20 minutes followed by ET-1 50 ng/kg/min for 30 minutes), the “blood perfusion in the breast tissue” value is on record as “did not change significantly”. For the same compound, the “effect of pretreatment on the increase in perfusion induced by ET-1” value in [9] (tumor-bearing rats) is reported as “attenuated”.
